In data set [1] the test system is APP/PS1 mice. Description: Alzheimer's animal model (APP/PS1 mice): immunofluorescence, Thioflavin S, Morris Water Maze. The data set is classed as in vivo, mouse. The following applies: 7-month-old APP/PS1 mice, 5 mg/kg N-acetyl sphingosine, 1 mg/kg FTY720 or 3 uM S1P daily for 4 weeks, intraperitoneal; for microglia (Iba1) in brain cortex vs APP/PS1 mice: FIG. 9a; for astrocytes (GFAP) in brain cortex vs APP/PS1 mice: FIG. 9b; for amount of Aβ / Aβ deposition (Thioflavin S) vs APP/PS1 mice: FIG. 9c; for memory and cognition (Morris Water Maze) vs APP/PS1 mice: FIG. 9d. An excerpt:
It has been approved for mouse experiments by the Kyungpook National University Institutional Animal Care and Use Committee (IACUC). A transgenic mouse line overexpressing APPswe (hAPP695swe) or PS1 (presenilin-1M146V) based on C57BL/6 mice (Charles River, UK) was used. [Hereinafter, APP mouse: mouse overexpressing APPswe, PS1 mouse: mouse overexpressing presenilin-1M146V; GlaxoSmithKline]. As an Alzheimer's (AD) animal model, SphK1 tg (SphK1 gene overexpressing mouse) was crossed with APP mice and APP/PS1 mice to prepare APP/PS1/SphK1 tg mice. Niemanpick (NP-C) animal model, Balb/C (Orient, Wild type), NPC mutant mouse lacking NPC1 gene (Provided by Riken, Japan, NP-C mice; less weight than normal mice of the same age, and severe motor function loss from 4 to 6 weeks of age, limb tremors and seizures appear, and lifespan is approximately 9 to 10 weeks. Is) was used. As an animal model for amyotrophic lateral sclerosis (ALS), a transgenic mouse (FUS) line overexpressing RUS R521C based on C57BL/6 mice (Charles River, UK) was used.
After fixing the cerebral and hippocampus of the mouse, anti-20G10 (mouse, 1:1000) against amyloid-β (Aβ) 42 and anti-G30 (rabbit, 1:1000) against Aβ 40, anti-MAP2 (chicken, 1:2000), anti-Synaptophysin (mouse, 1:100), anti-Synapsin1 (rabbit, 1:500), anti-PSD95 (mouse, 1:100), anti-Iba-1 (rabbit, 1:500), Anti-GFAP (rabbit, 1:500) was cultured together. The site was analyzed using a laser scanning confocal microscope or Olympus BX51 microscope equipped with Fluoview SV1000 imaging software (Olympus FV1000, Japan). Metamorph software (Molecular Devices) was used to quantify the percentage of the area of the stained area relative to the area of the total tissue.
In order to confirm the potential effect on learning and memory, MWM (Morris water maze) and fear conditioning experiments were performed. MWM learned the task 4 times a day for 10 days for the mice, the platform was removed on the 11th day, and a probe trial was performed. On the first day of Fear conditioning, the mice were placed in a conditioning chamber, and sound stimulation (10 kHz, 70 dB) and electrical stimulation (0.3 mA, 1 s) were given. On the second day, memory for the space was checked without stimulation in the same conditioning chamber as on the first day, and on the third day, a memory test for fear was performed when only sound stimulation was given in another conditioning chamber. An open field test was performed to evaluate motor ability and immediate activity. In the open field test, the mice were placed in a square box for 10 minutes to measure the overall exercise power, time, and distance.
(§1) In order to measure the neuroinflammatory resolution factor, after culturing neurons from mouse cerebrum, CM was prepared by treatment with 10 nM N-acetyl sphingosine 1 phosphate (Toronto Research chemicals, C262710) and N-acetyl sphingosine (Sigma, 01912). For COX2 acetylation analysis, neurons were cultured from mouse cerebrum and then treated with 2 uCi [^14C]N-acetyl sphingosine (ARC, ARC1024). In addition, for in vivo experiments, 7-month-old APP/PS1 mice were injected with 5 mg/kg N-acetyl sphingosine (Sigma, 01912), 1 mg/kg FTY720 and 3 uM S1P daily for 4 weeks via intraperitoneal injection. 1 month-old NPC mice were injected with 5 mg/kg N-acetyl sphingosine (Sigma, 01912) and 2-month-old FUS mice with 30 mg/kg N-acetyl sphingosine (Sigma, 01912) daily for 4 weeks via subcutaneous injection.
The present inventors confirmed AD lesions by injecting N-acetyl sphingosine, one of the COX2 acetylating agents identified through the above experiment, into an APP/PS1 animal model. First, in order to determine the effect of N-acetyl sphingosine on the neuroinflammatory response by secreting neuroinflammatory resolution factor, changes in microglia and astrocytes were observed. […]

Data set [2] addresses SphK1 (Homo sapiens, UniProt Q9NYA1). As to the kind of experiment: dissociation of acetyl-CoA from the acetyl-CoA:SphK1 complex, equilibrium dialysis. The data set is classed as binding. (In general: In equilibrium dialysis free small molecules cross a membrane that holds back macromolecules.)
Data set [3] deals with APP/PS1 neurons. As to the kind of experiment: neuroinflammatory resolution factor (SPMs) secretion in APP/PS1 neurons after COX2 acetylating agent treatment. The data set is classed as cell-based, mouse. The note with it: 10 nM; FIG. 8b. As to the method:
A commercially available ELISA kit (Biosource) was used, and the hemispheres of mice were homogenized and placed in a buffer containing 0.02M guanidine to prepare a sample for Aβ ELISA. In order to measure the neuroinflammatory resolution factor, conditioned media (CM) was prepared after culturing neurons from mouse cerebrum. Thereafter, according to the manufacturer's manual, ELISA for Aβ and SPM was performed.
as §1
First, in order to confirm whether the selected compounds promote the secretion of neuroinflammatory resolution factor in neurons, after treatment with N-acetyl sphingosine 1 phosphate or N-acetyl sphingosine in APP/PS1 neurons, the expression levels of neuroinflammatory resolution factor were confirmed. As a result, it was confirmed that the expression levels of LxA4 and RvE1 in neurons of APP/PS1 mice were recovered when treated with N-acetyl sphingosine 1 phosphate or N-acetyl sphingosine (FIG. 8b).

Substrate in data set [4]: CC(=O)SCCNC(=O)CCNC(=O)[C@H](O)C(C)(C)COP(=O)(O)OP(=O)(O)OC[C@H]1O[C@@H](n2cnc3c(N)ncnc32)[C@H](O)[C@@H]1OP(=O)(O)O
Description: purified protein, by the assay type. The following applies: other: in the presence of 10 mM sphingosine; [3H]acetyl-CoA; FIG. 1a.

As for `CCCCCCCCc1ccc(CCC(N)(CO)CO)cc1` [FTY720], in data set [1], the “microglia (Iba1) in brain cortex vs APP/PS1 mice” value is reported as “no difference”; the “astrocytes (GFAP) in brain cortex vs APP/PS1 mice” value was “no difference”; the “amount of Aβ / Aβ deposition (Thioflavin S) vs APP/PS1 mice” value was “no effect”; the “memory and cognition (Morris Water Maze) vs APP/PS1 mice” value is “no effect”.

What is called Kd is the concentration at which binding is half-saturated. Read a low Kd as higher affinity. On to `CC(=O)SCCNC(=O)CCNC(=O)[C@H](O)C(C)(C)COP(=O)(O)OP(=O)(O)OC[C@H]1O[C@@H](n2cnc3c(N)ncnc32)[C@H](O)[C@@H]1OP(=O)(O)O` [acetyl-CoA], for which the Kd in data set [2] came out at 6.8 µM.

For `CCCCCCCCCCCCC/C=C/[C@@H](O)[C@@H](N)COP(=O)(O)O` [S1P, sphingosine-1-phosphate], in data set [1], the “microglia (Iba1) in brain cortex vs APP/PS1 mice” value is reported as “no difference”; the “astrocytes (GFAP) in brain cortex vs APP/PS1 mice” value is “no difference”; the “amount of Aβ / Aβ deposition (Thioflavin S) vs APP/PS1 mice” value is listed as “no effect”; the “memory and cognition (Morris Water Maze) vs APP/PS1 mice” value is on record as “no effect”.

Turning to `CCCCCCCCCCCCC/C=C/[C@@H](O)[C@H](COP(=O)(O)O)NC(C)=O` [N-acetyl sphingosine 1 phosphate], in data set [3], the “expression level of LxA4 in neurons of APP/PS1 mice” value is given as “recovered” and the “expression level of RvE1 in neurons of APP/PS1 mice” value is recorded as “recovered”.

B1: SphK1 (Homo sapiens) (protein)
chain: MDPAGGPRGVLPRPCRVLVLLNPRGGKGKALQLFRSHVQPLLAEAEISFTLMLTERRNHARELVRSEELGRWDALVVMSGDGLMHEVVNGLMERPDWETAIQKPLCSLPAGSGNALAASLNHYAGYEQVTNEDLLTNCTLLLCRRLLSPMNLLSLHTASGLRLFSVLSLAWGFIADVDLESEKYRRLGEMRFTLGTFLRLAALRTYRGRLAYLPVGRVGSKTPASPVVVQQGPVDAHLVPLEEPVPSHWTVVPDEDFVLVLALLHSHLGSEMFAAPMGRCAAGVMHLFYVRAGVSRAMLLRLFLAMEKGRHMEYECPYLVYVPVVAFRLEPKDGKGVFAVDGELMVSEAVQGQVHPNYFWMVSGCVEPPPSWKPQQMPPPEEPL
Broadly, the Km is the concentration of substrate that gives half-maximal velocity. A word on the kcat: it is the number of substrate molecules converted per active site and unit of time at saturation. In the case of B1, in data set [4], the Km amounted to 58.2 µM and the kcat worked out at 0.000308 s⁻¹.

Source of the values: patent publication US11899025B2, “Pharmaceutical composition for preventing or treating neurodegenerative diseases comprising COX2 acetylating agent as active ingredient” (KYUNGPOOK NATIONAL UNIVERSITY INDUSTRY-ACADEMIC COOPERATION …, priority 2018, dated 2024).
